Results published in ChEMBL document CHEMBL3797114, “Design, synthesis and biological evaluation of 6-substituted pyrrolo[2,3-d]pyrimidines as dual inhibitors of TS and AICARFTase and as potential antitumor agents” (Eur J Med Chem, 2016).
Active and inactive are the calls of the source. No cut-off for these calls is given here.

How the values were obtained:
[1] = Antiproliferative activity against human SW620 cells after 72 hrs by MTT assay in presence of leucovorin; assay type: functional, cell-based; conditions: SW-620, 72 h
[2] = system: A549; test: Antiproliferative activity against human A549 cells after 72 hrs by MTT assay in presence of leucovorin; assay type: functional, cell-based; conditions: A549, 72 h
[3] = system: KB; test: Antiproliferative activity against human KB cells after 72 hrs by MTT assay in presence of leucovorin; assay type: functional, cell-based
[4] = molecular target: Thymidylate synthase/AICAR transformylase (Homo sapiens) (UniProt P04818+P31939); test: Inhibition of thymidylate synthase/AICARFTase in human SW620 cells assessed as growth inhibition at 0.001 to 10 uM coincubated with AICA and […]; assay type: cell-based; conditions: SW-620
[5] = system: SW-620; test: Induction of apoptosis in human SW620 cells assessed as viable cells at 10 uM after 48 hrs by annexin V-FITC/PI staining based flow cytometry in presence of leucovorin (reference value: 84.0 %); assay type: functional; conditions: SW-620, 48 h, read-out: Activity
[6] = system: KB; test: Inhibition of colony formation in human KB cells at 1 uM measured after 10 to 14 days by methylene blue staining based assay presence of leucovorin; assay type: functional
[7] = molecular target: Bifunctional purine biosynthesis protein ATIC (Homo sapiens) (UniProt P31939); test: Inhibition of AICARFTase in human SW620 cells assessed as growth inhibition at 0.001 to 10 uM coincubated with AICA; assay type: cell-based; conditions: SW-620
[8] = Cell cycle arrest in human SW620 cells assessed as accumulation at S phase at 10 uM after 96 hrs by propidium iodide staining based flow cytometry in presence of leucovorin (reference value: 27.3 %); assay type: functional; conditions: SW-620
[9] = molecular target: GAR transformylase/AICAR transformylase (Homo sapiens) (UniProt P31939+P22102); test: Inhibition of GARFTase/AICARFTase in human SW620 cells assessed as growth inhibition at 0.001 to 10 uM coincubated with adenosine; assay type: cell-based; conditions: SW-620
[10] = system: SW-620; test: Induction of apoptosis in human SW620 cells assessed as late apoptotic cells at 10 uM after 48 hrs by annexin V-FITC/PI staining based flow cytometry in presence of leucovorin (reference value: 6.4 %); assay type: functional
[11] = molecular target: Thymidylate synthase/GAR transformylase/AICAR transformylase (Homo sapiens) (UniProt P04818+P31939+P22102); test: Inhibition of thymidylate synthase/GARFTase/AICARFTase in human SW620 cells assessed as growth inhibition at 0.001 to 10 uM coincubated with thymidine and adenosine; assay type: cell-based; conditions: SW-620
[12] = molecular target: Thymidylate synthase (Homo sapiens) (UniProt P04818); test: Inhibition of thymidylate synthase in human SW620 cells assessed as growth inhibition at 0.001 to 10 uM coincubated with excessive thymidine; assay type: cell-based; conditions: SW-620
[13] = Cell cycle arrest in human SW620 cells assessed as accumulation at G2 phase at 10 uM after 96 hrs by propidium iodide staining based flow cytometry in presence of leucovorin (reference value: 10.3 %); assay type: functional; conditions: SW-620
[14] = Cell cycle arrest in human SW620 cells assessed as accumulation at G1 phase at 10 uM after 96 hrs by propidium iodide staining based flow cytometry in presence of leucovorin (reference value: 62.4 %); assay type: functional; conditions: SW-620
[15] = system: SW-620; test: Induction of apoptosis in human SW620 cells assessed as early apoptotic cells at 10 uM after 48 hrs by annexin V-FITC/PI staining based flow cytometry in presence of leucovorin (reference value: 0.6 %); assay type: functional
[16] = system: SW-620; test: Induction of apoptosis in human SW620 cells assessed as necrotic cells at 10 uM after 48 hrs by annexin V-FITC/PI staining based flow cytometry in presence of leucovorin (reference value: 9 %); assay type: functional

Sequence of Thymidylate synthase (Homo sapiens) (P04818 2-313 limits assumed): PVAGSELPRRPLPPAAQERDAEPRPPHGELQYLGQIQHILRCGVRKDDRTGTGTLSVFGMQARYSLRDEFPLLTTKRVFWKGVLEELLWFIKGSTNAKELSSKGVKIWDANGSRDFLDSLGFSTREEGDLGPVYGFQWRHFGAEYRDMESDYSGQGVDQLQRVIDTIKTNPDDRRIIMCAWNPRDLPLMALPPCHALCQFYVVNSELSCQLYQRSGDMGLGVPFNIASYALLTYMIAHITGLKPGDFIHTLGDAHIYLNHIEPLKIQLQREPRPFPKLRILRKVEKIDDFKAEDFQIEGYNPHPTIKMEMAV
Sequence of GAR transformylase/AICAR transformylase (Homo sapiens) (P22102 whole entry, looked up): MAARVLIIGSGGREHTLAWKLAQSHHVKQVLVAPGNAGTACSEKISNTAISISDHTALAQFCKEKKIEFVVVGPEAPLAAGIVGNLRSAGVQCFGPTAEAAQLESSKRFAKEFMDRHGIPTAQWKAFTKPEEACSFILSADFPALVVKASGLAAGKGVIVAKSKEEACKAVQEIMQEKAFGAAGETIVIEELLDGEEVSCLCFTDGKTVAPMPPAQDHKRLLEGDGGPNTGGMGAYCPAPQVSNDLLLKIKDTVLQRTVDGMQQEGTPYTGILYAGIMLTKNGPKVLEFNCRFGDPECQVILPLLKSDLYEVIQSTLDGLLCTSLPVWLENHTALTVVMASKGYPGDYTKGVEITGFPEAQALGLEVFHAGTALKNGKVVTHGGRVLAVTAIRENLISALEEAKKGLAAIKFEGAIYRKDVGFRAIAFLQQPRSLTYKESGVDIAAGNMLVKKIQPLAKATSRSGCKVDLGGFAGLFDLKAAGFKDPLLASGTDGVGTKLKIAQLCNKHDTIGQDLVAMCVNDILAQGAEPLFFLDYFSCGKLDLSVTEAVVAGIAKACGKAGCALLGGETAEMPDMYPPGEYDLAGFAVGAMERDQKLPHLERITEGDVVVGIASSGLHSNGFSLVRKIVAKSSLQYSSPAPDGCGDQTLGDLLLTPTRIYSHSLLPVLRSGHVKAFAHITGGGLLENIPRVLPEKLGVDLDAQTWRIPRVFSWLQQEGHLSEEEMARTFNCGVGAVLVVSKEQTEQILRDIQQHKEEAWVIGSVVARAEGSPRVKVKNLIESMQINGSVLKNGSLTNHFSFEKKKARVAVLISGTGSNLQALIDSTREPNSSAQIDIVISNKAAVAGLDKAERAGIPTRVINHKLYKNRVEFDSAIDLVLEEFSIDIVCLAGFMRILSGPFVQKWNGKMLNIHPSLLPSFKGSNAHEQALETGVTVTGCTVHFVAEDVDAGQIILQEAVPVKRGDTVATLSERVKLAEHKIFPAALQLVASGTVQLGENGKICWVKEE
Sequence of GAR transformylase/AICAR transformylase (Homo sapiens) (P31939 whole entry, looked up): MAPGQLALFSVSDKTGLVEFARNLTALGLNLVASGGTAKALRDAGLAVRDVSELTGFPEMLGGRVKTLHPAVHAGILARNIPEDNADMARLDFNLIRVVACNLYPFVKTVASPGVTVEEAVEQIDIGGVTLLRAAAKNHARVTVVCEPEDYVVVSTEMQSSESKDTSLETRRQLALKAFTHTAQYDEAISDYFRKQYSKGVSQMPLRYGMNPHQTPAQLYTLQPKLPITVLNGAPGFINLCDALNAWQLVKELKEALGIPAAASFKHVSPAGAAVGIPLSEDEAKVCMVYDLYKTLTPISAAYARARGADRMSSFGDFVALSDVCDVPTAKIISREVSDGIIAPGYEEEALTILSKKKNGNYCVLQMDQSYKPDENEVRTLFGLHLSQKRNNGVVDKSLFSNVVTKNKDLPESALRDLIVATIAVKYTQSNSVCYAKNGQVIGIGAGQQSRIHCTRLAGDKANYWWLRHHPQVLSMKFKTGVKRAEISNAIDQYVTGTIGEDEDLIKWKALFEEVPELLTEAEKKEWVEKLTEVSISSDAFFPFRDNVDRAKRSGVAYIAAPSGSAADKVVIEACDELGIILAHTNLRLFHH
Sequence of Thymidylate synthase/GAR transformylase/AICAR transformylase (Homo sapiens) (P04818 whole entry, looked up): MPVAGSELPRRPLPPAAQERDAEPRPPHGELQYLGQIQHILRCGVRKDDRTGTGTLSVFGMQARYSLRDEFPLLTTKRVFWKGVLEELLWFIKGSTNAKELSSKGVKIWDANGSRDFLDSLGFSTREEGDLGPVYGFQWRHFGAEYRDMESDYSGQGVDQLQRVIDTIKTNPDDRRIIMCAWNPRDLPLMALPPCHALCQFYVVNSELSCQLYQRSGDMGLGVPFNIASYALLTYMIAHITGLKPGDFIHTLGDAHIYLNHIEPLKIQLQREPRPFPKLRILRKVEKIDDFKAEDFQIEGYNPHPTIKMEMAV
Sequence of Thymidylate synthase/GAR transformylase/AICAR transformylase (Homo sapiens) (P22102 whole entry, looked up): as the sequence (P22102 whole entry, looked up) above
Sequence of Thymidylate synthase/GAR transformylase/AICAR transformylase (Homo sapiens) (P31939 whole entry, looked up): as the sequence (P31939 whole entry, looked up) above
Sequence of Thymidylate synthase/AICAR transformylase (Homo sapiens) (P04818 whole entry, looked up): as the sequence (P04818 whole entry, looked up) above
Sequence of Thymidylate synthase/AICAR transformylase (Homo sapiens) (P31939 whole entry, looked up): as the sequence (P31939 whole entry, looked up) above
Sequence of Bifunctional purine biosynthesis protein ATIC (Homo sapiens) (P31939 whole entry, looked up): as above

Structure (SMILES) | IC50 [1] [µM] | IC50 [2] [µM] | IC50 [3] [µM] | Activity [8] [%] | Activity [13] [%] | Activity [14] [%] | further results
Nc1nc2[nH]c(CCSCC(=O)NCc3cccnc3)cc2c(=O)[nH]1 | 25.3 | 56.6 | 37.5 |  |  |  | 
Nc1nc2[nH]c(CCSCC(=O)NCc3ccncc3)cc2c(=O)[nH]1 | 22.7 | 42.4 | 14.1 |  |  |  | 
Nc1nc2[nH]c(CCSCCC(=O)N[C@@H](CCC(=O)O)C(=O)O)cc2c(=O)[nH]1 | 0.387 | 0.713 | 0.324 | 39.2 | 4.5 | 56.3 | growth inhibition (GI) [4]: inactive; viability at 10 µM [5]: 22.1%; inhibition at 1 µM [6]: 80%; growth inhibition (GI) [7]: inactive; growth inhibition (GI) [9]: inactive; Activity [10]: 34.8%; growth inhibition (GI) [11]: inactive; growth inhibition (GI) [12]: inactive; Activity [15]: 1.5%; Activity [16]: 41.6%
Nc1nc2[nH]c(CCSCCC(=O)NCc3ccccn3)cc2c(=O)[nH]1 | 11.9 | 77.3 | 8.93 |  |  |  | 
Nc1nc2[nH]c(CCSCC(=O)NCc3ccccn3)cc2c(=O)[nH]1 | 36.1 | 14.1 | 28.4 |  |  |  | 
Nc1nc2[nH]c(CCSCCC(=O)NCc3ccncc3)cc2c(=O)[nH]1 | 24.8 | 7.87 | 45.6 |  |  |  | 
Nc1nc2[nH]c(CCSCC(=O)N[C@@H](CCC(=O)O)C(=O)O)cc2c(=O)[nH]1 | 0.442 | 0.668 | 0.373 |  |  |  | 
Nc1nc2[nH]cc(CCc3ccc(C(=O)N[C@@H](CCC(=O)O)C(=O)O)cc3)c2c(=O)[nH]1 [PEMETREXED] | 0.08 | 1.26 |  | 54.2 | 0 | 45.8 | 
Nc1nc2[nH]c(CCSCCC(=O)NCc3cccnc3)cc2c(=O)[nH]1 | 0.665 | 1.07 | 0.648 | 24.9 | 8.6 | 66.5 | viability at 10 µM [5]: 51.8%; inhibition at 1 µM [6]: 70%; Activity [10]: 25.1%; Activity [15]: 1.1%; Activity [16]: 22%
CN(Cc1cnc2nc(N)nc(N)c2n1)c1ccc(C(=O)N[C@@H](CCC(=O)O)C(=O)O)cc1 [METHOTREXATE] | 0.013 | 0.99 |  |  |  |  | 
